Experimental data published in ChEMBL document CHEMBL1201862, “PubChem BioAssay data set” (2004).
Calls of active or inactive are those of the source.

How the values were obtained:
Cytochrome P450 2D6 = Cytochrome P450 2D6 (Homo sapiens, UniProt P10635);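 also: CYP2D6 member of a cytochrome P450 panel assay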
[1] = molecular target: Voltage-dependent T-type calcium channel subunit alpha-1H (Homo sapiens, UniProt O95180); assay type: functional;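 also: channel activity triggered by adding a high calcium stimulation buffer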
[2] = inhibitors of intracellular T. cruzi replication, confirmation, NIH3T3 host cells, beta-gal luminescence (AID 2044); assay type: functional, cell-based;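 also: intracellular parasites grown in NIH/3T3 mouse fibroblasts as host cells; luminescent beta-galactosidase reporter signal from transgenic T. cruzi replicating inside host cells; inhibitors lower the luminescence signal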
[3] = molecular target: T1, Carboxy-terminal domain RNA polymerase II polypeptide A small phosphatase 1 (Homo sapiens, UniProt Q9GZU7); experiment: inhibitors of CTDSP1, concentration-response testing, biochemical assay, absorbance-based, actives from ultra-high-throughput screening (AID 540297); assay type: functional
T1 sequence (Q9GZU7 whole entry): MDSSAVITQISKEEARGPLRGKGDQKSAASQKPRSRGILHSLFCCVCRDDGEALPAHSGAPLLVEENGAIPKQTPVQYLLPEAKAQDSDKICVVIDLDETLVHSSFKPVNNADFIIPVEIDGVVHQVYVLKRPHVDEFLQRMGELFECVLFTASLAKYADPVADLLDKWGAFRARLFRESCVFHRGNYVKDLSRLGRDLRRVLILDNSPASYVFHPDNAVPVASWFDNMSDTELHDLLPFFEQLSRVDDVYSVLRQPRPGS

[4] = cytotoxicity toward NIH3T3 fibroblasts, dose response, counter-screen, cell-based, ATP luminescence, mouse fibroblasts (AID 2010); assay type: functional;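 also: cells exposed to compound for about 90 hours before reading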
Protein skinhead-1 = molecular target: T2, Protein skinhead-1 (Caenorhabditis elegans, UniProt P34707); assay type: functional
T2 sequence (P34707 whole entry): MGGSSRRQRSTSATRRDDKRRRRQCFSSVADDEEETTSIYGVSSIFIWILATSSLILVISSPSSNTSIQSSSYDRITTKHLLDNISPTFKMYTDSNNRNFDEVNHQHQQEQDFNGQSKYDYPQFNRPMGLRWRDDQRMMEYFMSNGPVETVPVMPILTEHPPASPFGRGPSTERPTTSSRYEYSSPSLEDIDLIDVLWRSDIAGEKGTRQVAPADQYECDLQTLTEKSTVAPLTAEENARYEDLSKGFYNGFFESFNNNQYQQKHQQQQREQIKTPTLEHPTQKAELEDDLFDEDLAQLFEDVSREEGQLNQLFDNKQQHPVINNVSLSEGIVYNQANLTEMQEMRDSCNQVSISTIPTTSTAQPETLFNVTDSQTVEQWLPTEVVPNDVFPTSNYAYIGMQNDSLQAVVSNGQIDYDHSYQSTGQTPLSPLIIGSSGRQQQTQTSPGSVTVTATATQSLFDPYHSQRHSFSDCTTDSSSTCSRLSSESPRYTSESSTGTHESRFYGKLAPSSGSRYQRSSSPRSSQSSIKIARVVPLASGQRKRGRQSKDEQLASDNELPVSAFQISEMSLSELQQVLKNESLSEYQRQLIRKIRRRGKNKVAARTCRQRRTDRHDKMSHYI

[5] = A549 cell cytotoxicity, dose response, cytotoxicity control, plate reader, cherry-pick, antagonist series (AID 743412); assay type: functional, cell-based
[6] = HepG2 cell cytotoxicity, dose response, cytotoxicity control, plate reader, cherry-pick, antagonist series (AID 743416); assay type: functional, cell-based
[7] = microbe, parasite or virus in culture; assay type: functional; details: Mycobacterium tuberculosis
H9c2 = experiment: cells; assay type: functional, cell-based; details: Rattus norvegicus, H9c2, Myocardium;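 also: confirmatory concentration-response retest of ultra-high-throughput screening hits for modulation of myocardial damage; cell death induced by hydrogen peroxide oxidative stress; compound pretreatment for 60 min then peroxide exposure for 2 h; potency is for protecting the cells against peroxide damage rather than for killing them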
[8] = LGR2 antagonists, dose response, cell-based, HEK293, CRE-luciferase reporter, cherry pick, set 2 (AID 743343); assay type: functional;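 also: transfected cells were stimulated with diluted bursicon conditioned medium after compound addition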
[9] = MC4R antagonists, dose response, counter-screen for LGR2 antagonist project, cell-based, plate reader, cherry pick (AID 743444); assay type: functional;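 also: transfected HEK 293 cells stimulated with alpha-MSH peptide; potency of inhibitors of the alpha-MSH evoked signal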
[10] = cytotoxicity in HEK-293T cells, dose response, cytotoxicity control for TCR NF-kB inhibitor project, luminescence, T-cell screen hits (AID 489026); assay type: functional, cell-based;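 also: cells exposed to compound about 14 hours before the viability readout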
Streptokinase A = molecular target: T3, Streptokinase A (Streptococcus pyogenes serotype M1, UniProt P10520); experiment: S. pyogenes streptokinase expression inhibitors, potency, dose response, plasminogen activation absorbance, OD405 (AID 1914); assay type: functional, Streptococcus pyogenes M1 GAS;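 also: secreted streptokinase activity via plasminogen activation per viability signal from cell pellet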
T3 sequence (P10520 whole entry): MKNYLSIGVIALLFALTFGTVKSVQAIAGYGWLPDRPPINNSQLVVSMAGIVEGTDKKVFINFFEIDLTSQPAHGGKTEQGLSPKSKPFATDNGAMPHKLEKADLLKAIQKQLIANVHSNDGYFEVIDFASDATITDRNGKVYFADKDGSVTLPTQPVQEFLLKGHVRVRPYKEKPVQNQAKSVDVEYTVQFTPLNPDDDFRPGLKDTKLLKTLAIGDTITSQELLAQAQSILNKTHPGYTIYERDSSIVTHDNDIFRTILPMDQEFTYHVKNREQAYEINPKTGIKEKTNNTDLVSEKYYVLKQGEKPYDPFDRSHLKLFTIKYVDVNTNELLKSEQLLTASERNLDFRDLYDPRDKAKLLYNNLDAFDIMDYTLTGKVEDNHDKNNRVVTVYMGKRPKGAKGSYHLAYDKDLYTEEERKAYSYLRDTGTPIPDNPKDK

Streptococcus = experiment: Group A Streptococcus viability loss, dose response, counter-screen for streptokinase expression inhibitor project, luminescence, BacTiterGlo (AID 1915); assay type: functional, organism-based;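 also: potency for reduction of bacterial viability or growth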
[11] = tested on: Streptococcus sp. 'group A'; experiment: growth inhibition of control SK(-) GAS strain, dose response, counter-screen for streptokinase expression inhibitor project, luminescence, kanamycin, BacTiterGlo, confirmation (AID 1900); assay type: functional, organism-based
Cytochrome P450 2C19 = Cytochrome P450 2C19 (Homo sapiens, UniProt P33261); experiment: Cytochrome panel assay with activity outcomes. Panel member name: p450-cyp2c19 Compounds with AC50 equal or less than 10 uM are considered active; assay type: functional; details: read-out: AC50
Cytochrome P450 1A2 = molecular target: T4, Cytochrome P450 1A2 (Homo sapiens, UniProt P05177);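 also: PubChem cytochrome P450 panel assay, CYP1A2 panel member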
T4 sequence (P05177 whole entry): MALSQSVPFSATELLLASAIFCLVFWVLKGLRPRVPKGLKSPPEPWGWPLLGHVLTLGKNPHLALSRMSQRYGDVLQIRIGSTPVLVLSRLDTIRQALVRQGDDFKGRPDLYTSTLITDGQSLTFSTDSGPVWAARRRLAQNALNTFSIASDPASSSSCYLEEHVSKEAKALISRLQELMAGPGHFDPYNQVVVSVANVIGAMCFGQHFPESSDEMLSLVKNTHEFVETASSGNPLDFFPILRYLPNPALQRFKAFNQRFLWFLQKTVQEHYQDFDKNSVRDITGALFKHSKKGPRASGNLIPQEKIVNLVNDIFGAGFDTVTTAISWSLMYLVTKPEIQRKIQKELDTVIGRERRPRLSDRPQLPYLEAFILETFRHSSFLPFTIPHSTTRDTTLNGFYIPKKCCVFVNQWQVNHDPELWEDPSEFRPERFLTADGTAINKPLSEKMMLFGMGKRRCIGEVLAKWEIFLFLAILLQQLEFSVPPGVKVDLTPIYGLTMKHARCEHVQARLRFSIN

INS1 = experiment: beta cell apoptosis inhibitors, cytokine rescue, dose response, luminescence, retest (AID 449756); assay type: functional, cell-based; details: Rattus norvegicus;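 also: cell death triggered by IL-1 beta plus TNF-alpha plus IFN-gamma mixture; protective hits raise ATP signal compared with cytokine alone wells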
[12] = Luminescence Cell-Based Dose Retest to Confirm Inhibitors of Cancer Stem Cells. [Related pubchem assays (depositor defined):AID2717, AID2721]; assay type: functional; details: Homo sapiens
Nonstructural protein 1 = Nonstructural protein 1 (Influenza A virus, UniProt Q194T2); assay type: functional, Influenza A virus (A/California/07/2009(H1N1))
Sequence of Nonstructural protein 1 (Q194T2 whole entry): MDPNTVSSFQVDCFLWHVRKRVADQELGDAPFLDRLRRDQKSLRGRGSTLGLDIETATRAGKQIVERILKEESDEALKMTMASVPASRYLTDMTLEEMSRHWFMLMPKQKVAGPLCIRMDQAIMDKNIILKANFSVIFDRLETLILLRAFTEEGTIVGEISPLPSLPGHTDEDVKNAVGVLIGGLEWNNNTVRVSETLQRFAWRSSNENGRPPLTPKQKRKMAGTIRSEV

Sequence of Voltage-dependent T-type calcium channel subunit alpha-1H (O95180 whole entry): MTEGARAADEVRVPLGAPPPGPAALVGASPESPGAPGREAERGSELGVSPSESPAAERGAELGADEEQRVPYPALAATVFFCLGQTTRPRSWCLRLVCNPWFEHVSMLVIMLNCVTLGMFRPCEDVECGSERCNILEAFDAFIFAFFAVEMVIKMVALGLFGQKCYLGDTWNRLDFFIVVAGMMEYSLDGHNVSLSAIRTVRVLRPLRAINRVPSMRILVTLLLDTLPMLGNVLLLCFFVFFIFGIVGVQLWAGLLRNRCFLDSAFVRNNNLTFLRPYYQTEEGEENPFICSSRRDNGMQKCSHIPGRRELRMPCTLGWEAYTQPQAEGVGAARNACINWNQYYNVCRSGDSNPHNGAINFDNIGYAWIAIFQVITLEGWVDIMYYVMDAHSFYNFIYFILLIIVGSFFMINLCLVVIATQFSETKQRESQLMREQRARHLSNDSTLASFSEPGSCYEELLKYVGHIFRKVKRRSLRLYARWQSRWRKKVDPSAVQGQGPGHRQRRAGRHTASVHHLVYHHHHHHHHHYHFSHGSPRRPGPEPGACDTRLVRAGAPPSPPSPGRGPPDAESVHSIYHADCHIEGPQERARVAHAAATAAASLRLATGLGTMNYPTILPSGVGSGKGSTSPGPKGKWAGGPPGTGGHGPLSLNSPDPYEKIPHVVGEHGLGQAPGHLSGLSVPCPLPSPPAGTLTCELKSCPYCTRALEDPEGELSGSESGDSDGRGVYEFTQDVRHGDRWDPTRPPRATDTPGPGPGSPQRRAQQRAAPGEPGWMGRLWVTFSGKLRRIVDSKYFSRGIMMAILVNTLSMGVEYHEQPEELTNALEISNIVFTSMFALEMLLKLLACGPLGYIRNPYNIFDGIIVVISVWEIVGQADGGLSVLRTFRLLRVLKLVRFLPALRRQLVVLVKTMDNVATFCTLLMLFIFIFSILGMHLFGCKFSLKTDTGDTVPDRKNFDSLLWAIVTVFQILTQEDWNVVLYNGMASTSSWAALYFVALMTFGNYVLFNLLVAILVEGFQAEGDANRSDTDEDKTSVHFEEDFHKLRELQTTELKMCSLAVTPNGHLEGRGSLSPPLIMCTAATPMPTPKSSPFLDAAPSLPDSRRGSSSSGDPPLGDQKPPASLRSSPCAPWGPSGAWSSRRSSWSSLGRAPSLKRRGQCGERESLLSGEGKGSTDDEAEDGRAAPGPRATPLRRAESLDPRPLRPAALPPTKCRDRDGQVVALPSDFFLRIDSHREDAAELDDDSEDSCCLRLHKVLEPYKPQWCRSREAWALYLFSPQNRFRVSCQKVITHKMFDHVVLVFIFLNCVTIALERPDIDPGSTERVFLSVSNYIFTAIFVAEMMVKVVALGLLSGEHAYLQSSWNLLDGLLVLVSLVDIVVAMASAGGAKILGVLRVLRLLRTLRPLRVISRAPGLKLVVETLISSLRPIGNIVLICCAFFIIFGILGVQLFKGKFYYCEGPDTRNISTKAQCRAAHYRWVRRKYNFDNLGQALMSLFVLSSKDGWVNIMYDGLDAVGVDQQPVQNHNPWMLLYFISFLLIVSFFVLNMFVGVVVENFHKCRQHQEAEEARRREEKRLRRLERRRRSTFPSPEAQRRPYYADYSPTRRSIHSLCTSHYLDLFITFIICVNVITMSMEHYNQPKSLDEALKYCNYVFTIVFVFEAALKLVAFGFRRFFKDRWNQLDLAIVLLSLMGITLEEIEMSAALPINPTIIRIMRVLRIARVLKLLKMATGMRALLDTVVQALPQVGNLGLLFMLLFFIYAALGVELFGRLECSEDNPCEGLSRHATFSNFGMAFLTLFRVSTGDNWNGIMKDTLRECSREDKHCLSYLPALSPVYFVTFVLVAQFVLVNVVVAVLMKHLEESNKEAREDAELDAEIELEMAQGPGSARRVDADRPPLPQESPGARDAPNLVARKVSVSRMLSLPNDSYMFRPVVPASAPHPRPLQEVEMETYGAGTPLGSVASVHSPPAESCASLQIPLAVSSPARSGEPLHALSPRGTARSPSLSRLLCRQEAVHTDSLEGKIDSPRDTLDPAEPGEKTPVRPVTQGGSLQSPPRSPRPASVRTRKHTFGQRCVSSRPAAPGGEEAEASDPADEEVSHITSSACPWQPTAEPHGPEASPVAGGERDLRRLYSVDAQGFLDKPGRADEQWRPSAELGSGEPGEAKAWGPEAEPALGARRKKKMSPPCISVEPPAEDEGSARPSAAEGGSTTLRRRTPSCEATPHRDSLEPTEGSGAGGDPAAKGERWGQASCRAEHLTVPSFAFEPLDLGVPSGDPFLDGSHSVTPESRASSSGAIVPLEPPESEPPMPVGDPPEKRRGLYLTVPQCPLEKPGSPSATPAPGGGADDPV
Sequence of Cytochrome P450 2C19 (P33261 whole entry): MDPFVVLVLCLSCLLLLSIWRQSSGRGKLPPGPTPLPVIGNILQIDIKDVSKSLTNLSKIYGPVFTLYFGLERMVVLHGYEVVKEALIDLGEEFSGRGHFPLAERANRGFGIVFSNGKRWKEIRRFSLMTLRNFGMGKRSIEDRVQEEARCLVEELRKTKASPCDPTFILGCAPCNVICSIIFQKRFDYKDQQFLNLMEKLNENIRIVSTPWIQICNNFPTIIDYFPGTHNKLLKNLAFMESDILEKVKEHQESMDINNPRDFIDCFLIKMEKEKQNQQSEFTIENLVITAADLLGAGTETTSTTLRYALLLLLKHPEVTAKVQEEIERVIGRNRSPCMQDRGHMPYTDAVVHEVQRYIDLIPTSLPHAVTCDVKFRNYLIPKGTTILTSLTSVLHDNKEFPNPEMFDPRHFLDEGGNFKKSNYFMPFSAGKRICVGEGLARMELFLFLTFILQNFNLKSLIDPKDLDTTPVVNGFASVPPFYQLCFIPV
Sequence of Cytochrome P450 2D6 (P10635 whole entry): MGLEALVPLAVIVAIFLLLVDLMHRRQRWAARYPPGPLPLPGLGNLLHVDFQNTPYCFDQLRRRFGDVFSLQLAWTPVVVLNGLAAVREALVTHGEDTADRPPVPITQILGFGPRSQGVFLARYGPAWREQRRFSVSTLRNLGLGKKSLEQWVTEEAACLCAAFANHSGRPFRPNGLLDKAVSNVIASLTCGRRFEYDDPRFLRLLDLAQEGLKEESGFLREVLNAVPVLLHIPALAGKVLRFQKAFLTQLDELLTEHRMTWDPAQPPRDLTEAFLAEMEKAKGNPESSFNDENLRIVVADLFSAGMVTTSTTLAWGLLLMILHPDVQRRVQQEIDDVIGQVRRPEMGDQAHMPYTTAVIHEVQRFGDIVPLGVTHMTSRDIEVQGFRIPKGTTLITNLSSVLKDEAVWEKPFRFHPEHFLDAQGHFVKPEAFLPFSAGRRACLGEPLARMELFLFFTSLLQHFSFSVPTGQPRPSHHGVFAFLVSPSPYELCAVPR

c1ccc(CN2c3ccccc3-c3nc4ccccc4n3C2c2ccccn2)cc1 (stereo not drawn)
AC50 (Cytochrome P450 2D6): 15.8 µM (inconclusive) | EC50 [1]: 1.94 µM (active)

Cc1cccc2sc(NC(=O)C3CCN(S(=O)(=O)c4cc([N+](=O)[O-])ccc4Cl)CC3)nc12
EC50 [2]: 0.63 µM (active) | IC50 [3]: 3.44 µM (active) | EC50 [4]: > 30 µM (not active)

O=C(Nc1nc2c(s1)CCc1ccccc1-2)c1ccco1
IC50 (Protein skinhead-1): > 100 µM (inactive)

S=C(NCc1ccccc1)NCC1COc2ccccc2O1 (stereo not drawn)
EC50 [1]: 3.17 µM (active)

O=C(c1ccc2c(c1)OCCO2)C1CCN(S(=O)(=O)c2ccc(F)cc2)CC1
AC50 [5]: > 52 µM (inactive) | AC50 [6]: > 52 µM (inactive)

COc1ccc(-c2cc(C(=O)N(C)CC(=O)Nc3cccc(F)c3)c3ccccc3n2)cc1
CC50 [7]: 36.5 µM (active)

COc1ccc(-c2cc(-c3nnc(COC(=O)c4ccncc4)o3)c3ccccc3n2)cc1OC
IC50 (H9c2): 9.82 µM (active)

O=C(CSC(=S)N1CCCC1)c1cc(Br)cc(Br)c1O
CC50 [7]: > 40 µM (active)

N#C[C@@H]1[C@H](c2ccc(C#Cc3cccc(F)c3)cc2)[C@@H](CO)N1C(=O)C1CCCC1
AC50 [6]: 27.1 µM (active) | AC50 [8]: 16.5 µM (active) | AC50 [9]: 8.4 µM (active)

O=C(Nc1nccs1)c1ccc(-c2ccccc2[N+](=O)[O-])o1
IC50 (Protein skinhead-1): > 100 µM (inactive)

O=C(CCn1c(=O)oc2ccccc21)N(Cc1ccccc1)c1ccccc1
IC50 (H9c2): > 79 µM (inactive)

O=C(Nc1cccc2ccccc12)OC1C=CS(=O)(=O)C1 (stereo not drawn)
IC50 [10]: > 80 µM (inactive)

CC(OC(=O)Cc1nnc(O)c2ccccc12)C(=O)Nc1ccc(Cl)cn1 (stereo not drawn)
IC50 (H9c2): 7.17 µM (active) | EC50 (Streptokinase A): > 150 µM (not active) | EC50 (Streptococcus): 23.1 µM (active) | EC50 [11]: 9.99 µM (active)

O=C(CN(Cc1ccccc1)C(=O)c1cc2c(s1)CCC2)NCc1cccs1
EC50 [1]: 5.32 µM (active)

COc1cccc(/C=N/NC(=O)c2nc(-c3ccccc3)cc(-c3ccccc3)n2)c1
IC50 (H9c2): > 79 µM (inactive) | AC50 (Cytochrome P450 2C19): 0.794 µM (inconclusive) | AC50 (Cytochrome P450 1A2): 3.16 µM (inconclusive)

O=C(Nc1ccccc1)N1CCCC(c2nc(-c3ccc(F)cc3)no2)C1 (stereo not drawn)
AC50 (Cytochrome P450 2C19): 39.8 µM (inconclusive) | EC50 [1]: 1.52 µM (active)

O=C(COc1ccccc1)Nc1nnc(-c2ccc(Cl)s2)o1
EC50 [1]: 25.7 µM (active)

CCOC(=O)N1CCN(S(=O)(=O)c2ccc(C(=O)NNc3nc4cc(C)cc(C)c4s3)cc2)CC1
AC50 (INS1): 3.67 µM (active) | AC50 [12]: 3.69 µM (active) | IC50 (Nonstructural protein 1): > 100 µM (active)

CC#CC(=O)N1CCC(n2nccc2NC(=O)c2ccc3c(c2)OCO3)CC1
IC50 [10]: > 80 µM (inactive)
